Measured values from a melting point compilation (Tetko et al.; mined from patent text by program, amines drawn as free bases though some values may be those of a salt).

Q: Which melting point does the source give for `CCCCCCCCCN(CCC)CCC(O)(P(=O)(O)O)P(=O)(O)O` here?
A: 45 to 47 °C

Q: With `O=C(O)CCCNC(=O)c1ccccc1NC(=O)c1ccc(Cl)cc1` as the molecule, how does the melting point read?
A: 182 to 184 °C

Q: With `CCCc1c(OCCCOc2cccc(C(=O)NCCCCc3cccnc3)c2)ccc(C(C)=O)c1O` as the molecule, how does the melting point read?
A: 84 to 86 °C

Q: For `COc1cc2c(cc1Nc1ncc(Cl)c(Nc3c(OC)ccc4c3CN(S(C)(=O)=O)CC(=O)N4)n1)CCN(CC(=O)N(C)C)CC2`, which melting point is on record?
A: 118 to 121 °C

Q: For `CCCCc1nc2c(c(=O)[nH]1)CN(C(=O)OCc1ccccc1)CC2`, which melting point is on record?
A: 117 to 122 °C

Q: With `O=C(C=Cc1ccc(F)cc1)C(c1ccccc1)c1ccccc1` as the molecule, how does the melting point read?
A: 122 to 124 °C

Q: With `Clc1ccc2nc(Cl)c3[nH]c4ccccc4c3c2c1` as the molecule, how does the melting point read?
A: 265 to 266 °C

Q: Which melting point does the source give for `COC(=O)c1cccc2c1C(Cc1ccnc(F)c1)(Cc1ccnc(F)c1)c1ccccc1-2` here?
A: 126 to 127 °C

Q: With `COc1ccc(CCNC(=O)CCc2ccc(Cl)cc2)cc1C` as the molecule, how does the melting point read?
A: 142 to 144 °C

Q: Which melting point does the source give for `COC(=O)c1c(C)[nH]c(C)c1C1=CC(=O)c2ncccc2C1=O` here?
A: 237 to 241 °C

Q: With `C=C1N(c2ccccc2)C(=O)OC12CCN(C(=O)N1CCN(C)CC1)CC2` as the molecule, how does the melting point read?
A: 139 to 140 °C

Q: For `O=C(Nc1ccc2ccc(-c3ccc(F)cc3)nc2n1)c1cccc(Br)c1`, which melting point is on record?
A: 210 °C

Q: Which melting point does the source give for `Cc1ccc(C2CCN(CCc3c(C)[nH]c4ccccc34)CC2)cc1` here?
A: 192 to 194 °C

Q: For `CCc1c(C(=O)NNC(=O)C(O)c2cc(F)cc(F)c2)ccc(O)c1C` (centres undefined), which melting point is on record?
A: 187 °C

Q: For `COC(=O)c1ccc(Cl)cc1NC(=O)CSc1cccc(OC)c1`, which melting point is on record?
A: 72 to 73 °C

Q: Which melting point does the source give for `Cc1nn(-c2ccccn2)cc1COc1ccc(CCC(=O)O)cc1` here?
A: 129 to 130 °C

Q: For `NS(=O)(=O)c1ccc(-c2cn(-c3nc(-c4ccc(Cl)cc4)cc(C(F)(F)F)n3)cn2)cc1`, which melting point is on record?
A: 324 °C

Q: With `O=C(O)CCC(=O)c1ccc2c(c1)CNC(=O)N2` as the molecule, how does the melting point read?
A: 176 to 180 °C

Q: With `CC(=O)n1cnc2c(CBr)cccc21` as the molecule, how does the melting point read?
A: 109 to 112 °C

Q: Which melting point does the source give for `CCc1nnc(-c2ccc(OC)cc2)n1-c1ccc(Cl)cc1` here?
A: 162 °C

Q: For `COc1ccc(N2CCOCC2)c2sc(NC(=O)N3CC4CC[C@@](C)(C3)C4(C)C)nc12`, which melting point is on record?
A: 185 to 189 °C

Q: Which melting point does the source give for `CCCCN(CCCC)C(=O)NCCc1ccc(-c2csc(N)n2)cc1` here?
A: 42 to 43 °C

Q: With `C[C@]1(CN2CCN(C(=O)OCc3ccc(OC(F)(F)F)cc3)CC2)Cn2cc([N+](=O)[O-])nc2O1` as the molecule, how does the melting point read?
A: 140 °C

Q: Which melting point does the source give for `O=C1C(=Cc2ccncc2)CCc2ccccc21` here?
A: 112 to 114 °C

Q: Which melting point does the source give for `C=CCc1c(OC(C)=O)ccc2c(C)cc(=O)oc12` here?
A: 98.8 to 99.8 °C

Q: For `Cc1cccc(COc2cccc(COc3ccc4ccccc4n3)c2)c1C(=O)O`, which melting point is on record?
A: 68 to 72 °C

Q: Which melting point does the source give for `CN(C)C1CCN(C(=O)C2CCC(Nc3nccc(-n4ccc5c(OCCCS(C)(=O)=O)cccc54)n3)CC2)CC1` (centres undefined) here?
A: 182 to 183 °C

Q: Which melting point does the source give for `CC(=O)O[C@H]1c2cc(F)ccc2Cc2ccccc2[C@H]1C[C@@H]1COC(C)(C)O1` here?
A: 147 to 149 °C

Q: With `COc1ccc(N)cc1-c1nc(C)c(-c2cccnc2)[nH]1` as the molecule, how does the melting point read?
A: 172 to 173 °C

Q: Which melting point does the source give for `CN1CCN(c2ccc(Nc3ncc4c(n3)S/C(=C/c3ccc(C#N)cc3)C(=O)N4)cc2)CC1` here?
A: 274 to 276 °C

Q: Which melting point does the source give for `O=c1cc(-c2ccc(Cl)cc2)oc2ccc(OCCCCCCN3CCC(O)CC3)cc12` here?
A: 127 to 128 °C

Q: With `CSCC(NCc1cc(Br)cc(Br)c1N)C(=O)O` (centres undefined) as the molecule, how does the melting point read?
A: 240 °C

Q: With `CC(=O)CC[C@H](NC(=O)OCc1ccccc1)C(N)=O` as the molecule, how does the melting point read?
A: 142 to 144 °C

Q: Which melting point does the source give for `O=C(NCCc1ccccn1)c1ccccc1-c1ccccc1CNS(=O)(=O)c1ccccc1` here?
A: 131 °C

Q: With `COc1ccc(-c2c(Cl)c(CN3C(=O)CCC3=O)nc3sc4c(c23)CC[C@H](C(N)=O)C4)cc1` as the molecule, how does the melting point read?
A: 282 to 283 °C

Q: With `CCCCc1nn(-c2cc([N+](=O)[O-])ccc2C(F)(F)F)c(=O)n1Cc1ccc(-c2ccccc2S(=O)(=O)NC(C)(C)C)cc1F` as the molecule, how does the melting point read?
A: 145 to 146 °C

Q: For `O=C1C(c2ccc(-c3ccccc3)cc2)n2cncc2CN1Cc1ccc(F)cc1` (centres undefined), which melting point is on record?
A: 189 to 190 °C

Q: Which melting point does the source give for `CCC(=O)N(Cc1ccc(OC)cc1)c1cc(F)cc(-c2nnn[nH]2)c1` here?
A: 158 to 160 °C

Q: Which melting point does the source give for `CCN(CC)CC1CCCCN1CCNC(=O)N1c2ccccc2C(=O)Nc2cccnc21` (centres undefined) here?
A: 175 to 176 °C

Q: With `BrCCCCCCOc1ccc(OCc2ccccc2)cc1` as the molecule, how does the melting point read?
A: 72 to 73 °C

Q: Which melting point does the source give for `N#CCCC(=O)c1ccncc1` here?
A: 53.5 to 55 °C

Q: With `COc1ccc2c(CC(=O)O)c(C(=O)c3ccc(Cl)cc3)[nH]c2c1` as the molecule, how does the melting point read?
A: 193 °C

Q: Which melting point does the source give for `COc1ccc2c(c1OCc1ccccc1)CCN(C=O)C2` here?
A: 118 °C

Q: Which melting point does the source give for `COC(=O)C(C)(C)Cc1c(SC(C)(C)C)c2cc(O)ccc2n1Cc1ccc(Cl)cc1` here?
A: 170 to 171 °C

Q: Which melting point does the source give for `CSC1=CC2=CN(O)NN2C(Cl)=N1` here?
A: 256 to 257 °C

Q: For `Oc1ccc(-c2nnnc(-c3cccc4ccccc34)c2-c2ccc(O)cc2O)c(O)c1`, which melting point is on record?
A: > 280 °C

Q: With `Brc1cccc(C2Cc3cnc(Nc4ccc(CCN5CCOCC5)cc4)nc3-c3ccccc32)c1` (centres undefined) as the molecule, how does the melting point read?
A: 86 to 88 °C

Q: Which melting point does the source give for `O=C1OC2=C(COc3ccccc32)C1=O` here?
A: 146 to 148 °C

Q: For `Cc1ncsc1CCOc1ccc(NC(=O)c2cc(F)cc(N3CCCCC3)c2)c2ccccc12`, which melting point is on record?
A: 221 to 222 °C

Q: Which melting point does the source give for `[N-]=[N+]=NC1=C([C@H]2CC[C@H](c3ccc(Cl)cc3)CC2)C(=O)c2ccccc2C1=O` here?
A: 130 to 135 °C

Q: For `CC(C)(C)NCC(O)COc1ccccc1Cc1cccc2[nH]ccc12` (centres undefined), which melting point is on record?
A: 78 °C

Q: For `CC(C)(C)CN1c2ccccc2C(C)(C)C12C=Nc1c(ccc3ccccc13)O2` (centres undefined), which melting point is on record?
A: 167 to 170 °C

Q: Which melting point does the source give for `CCc1nc2csc(C(=S)OC)c2[nH]1` here?
A: 140 to 142 °C

Q: For `CCOC(=O)CCc1cn(-c2ccccc2)nc1O`, which melting point is on record?
A: 116 to 118 °C

Q: With `COC(=O)c1cc(O)c2cc(N3CCOCC3)ccc2c1` as the molecule, how does the melting point read?
A: 231 to 234 °C

Q: Which melting point does the source give for `CC(C)(C)OC(=O)NC1CCN(C(=O)[C@@]23C[C@@H](c4ccccc42)c2ccc(Cl)cc23)CC1` here?
A: 154 to 156 °C

Q: For `COC(=O)c1cc(O)n[nH]1`, which melting point is on record?
A: 229 to 231 °C

Q: For `CSc1ncc2cc(-c3c(Cl)cccc3Cl)c(=N)n(C)c2n1`, which melting point is on record?
A: 198 to 200 °C

Q: Which melting point does the source give for `O=c1[nH]c(CCl)c(Br)c(=O)[nH]1` here?
A: 245 °C

Q: Which melting point does the source give for `CC(C)(C)c1ccc(OP2N(c3ccccc3)P(Oc3ccc(C(C)(C)C)cc3C(C)(C)C)N2c2ccccc2)c(C(C)(C)C)c1` (centres undefined) here?
A: 162 to 166 °C

Q: With `CCCOc1ccc(F)c2c(=O)c(-c3ccc(OC)cc3)cn(CC(=O)NC3CCNCC3)c12` as the molecule, how does the melting point read?
A: 226 to 228 °C

Q: With `CC(C)(C)Oc1ccc(C(=O)N[C@H]2CC[C@H](CCN3CCN(c4nccc5c4CCO5)CC3)CC2)cc1` as the molecule, how does the melting point read?
A: 200 °C

Q: For `CC(=O)c1ccc(Nc2cnc3c(NCc4ccccc4)nc(NCCO)nc3c2)cc1`, which melting point is on record?
A: 125 to 126 °C

Q: With `CC(C)n1nc(-c2c(-c3ccccc3)nn3ccc(OCc4ccccc4)cc23)ccc1=O` as the molecule, how does the melting point read?
A: 168 °C

Q: With `COC(=O)C1=C(C)NC(C)=C(C(=O)OC(C)CCl)C1c1cccc([N+](=O)[O-])c1` (centres undefined) as the molecule, how does the melting point read?
A: 95 to 102 °C

Q: Which melting point does the source give for `CCCc1noc(-c2ccc(N3CCN(C(=O)c4ccccc4C(F)(F)F)CC3)nn2)n1` here?
A: 226 °C

Q: For `CCOC(=O)C1=Cc2c(ccc(Cl)c2I)OC1C(F)(F)F` (centres undefined), which melting point is on record?
A: 117 to 119 °C

Q: Which melting point does the source give for `CC(=O)NCc1ccc2c(c1)ncn2-c1cccc(-c2nccs2)c1` here?
A: 156 °C

Q: For `COC(=O)c1cc2cc(Br)ccc2nc1Cl`, which melting point is on record?
A: 176 to 177 °C
